{"source": "patent US8420668B2", "about": "“1-(2H)-isoquinolone derivative” (Chugai Seiyaku Kabushiki Kaisha, priority 2008, dated 2013)", "key": {"[1]": {"test": "Measurement of solubility in physiological saline", "assay_type": "physicochemical", "conditions": "stirred 2 hours, filtered, HPLC", "method": "The solubility of exemplary compounds of the present invention was measured.\nThe measurement was carried out using an internal standard method, and a 4-point calibration curve (4000 μM, 1000 μM, 250 μM, and 31.3 μM, or 1000 μM, 250 μM, 62.5 μM, and 7.8 μM) was prepared. A sample solution (100% DMSO) was lyophilized, and each solution was added. Then, the mixture was stirred for 2 hours, and the sample dissolved in the solution was filtered. Thereafter, the filtrate was measured by HPLC (HPLC). Physiological saline was used as a solution. Note that among the test compounds used, comparative compound 1 was the compound of Example 3-26 described in International publication No. WO06/090743 (phosphoric acid dibenzyl ester(R)-2-oxo-3-[1-oxo-3-(2-trifluoromethylphenyl)-1,2-dihydroisoquinolin-7-yl]-oxazolidin-5-ylmethyl ester). Further, the optical isomer of comparative compound 1, i.e., phosphoric acid dibenzyl ester(S)-2-oxo-3-[1-oxo-3-(2-trifluoromethylphenyl)-1,2-dihydroisoquinolin-7-yl]-oxazolidin-5-ylmethyl ester, was used as comparative compound 2. An active substance of the compound of the present invention, i.e., 7-((S)-5-hydroxymethyl-2-oxooxazolidin-3-yl)-3-(2-trifluoromethylphenyl)-2H-isoquinolin-1-one, was used as comparative compound 3. Another active substance of the compound of the present invention, i.e., 7-((R)-5-hydroxymethyl-2-oxooxazolidin-3-yl)-3-(2-trifluoromethylphenyl)-2H-isoquinolin-1-one, was used as comparative compound 4."}, "[2]": {"test": "Measurement of conversion rate in human plasma", "assay_type": "in vitro ADME", "conditions": "37° C., 50 μM", "method": "The conversion rate of exemplary compounds of the present invention in human plasma was measured. The measurement of conversion rate in human plasma was conducted using human plasma purchased from Rockland Immunochemicals, Inc. (Pennsylvania, the United States of America). Each compound was incubated at 37° C. for 6 hours in plasma at a concentration of 50 μM, subjected to deproteinization treatment, and then quantified by HPLC using an internal standard method. The conversion rate was calculated as a residual rate after 6 hours. Comparative compounds 1 and 2 described above were also tested as test compounds."}, "[3]": {"system": "human colon cancer cell line HCT116", "test": "Measurement of antitumor effect in HCT116 tumor-bearing nude mice", "assay_type": "in vivo, BALB/c nude mouse", "conditions": "tail vein, administered twice (day 0 and day 7), HCT116 subcutaneous xenograft, vs control group 14 days after start", "method": "The antitumor effect of exemplary compounds of the present invention was measured.\nThe antitumor effect was determined using tumor-bearing mice prepared by subcutaneously implanting a human colon cancer cell line HCT116 obtained from American Type Culture Collection (Virginia, the United States of America) into flank of each BALB/c nude mouse purchased from Charles River, Japan. The purchased nude mice were quarantined for 1 week, and thereafter about 5×10^6 HCT116 cells were subcutaneously implanted into flank of each mouse. The mice were subjected to the experiment at the time when their tumor grew to a size of about 200 mm^3.\nEach compound was dissolved in an administration solution, and the solution was administered to the tail vein at 0.1 mL per 10 g of body weight of each mouse. Administration was carried out twice in total; on the initiation day of administration and 7 days after the initiation day. The antitumor effect was calculated as tumor growth inhibition by comparing with tumor growth in the administration solution-administered control group 14 days after the initiation day of administration."}, "[4]": {"conditions": "saline or isotonic, thermodynamic from solid"}}, "data": [{"smiles": "O=C1O[C@H](COP(=O)(OCc2ccccc2)OCc2ccccc2)CN1c1ccc2cc(-c3ccccc3C(F)(F)F)[nH]c(=O)c2c1", "note": "[Comparative compound 2, phosphoric acid dibenzyl ester(S)-2-oxo-3-[1-oxo-3-(2-trifluoromethylphenyl)-1,2-dihydroisoquinolin-7-yl]-oxazolidin-5-ylmethyl ester, reference compound]", "values": [{"measurement": "solubility at 2 h", "setting": "[1]; [4]", "result": "< 7.8", "unit": "µM"}, {"measurement": "Residual rate (after 6 hrs., %)", "setting": "[2]", "result": 95.5, "unit": "%"}]}, {"smiles": "O=C1O[C@@H](CO)CN1c1ccc2cc(-c3ccccc3C(F)(F)F)[nH]c(=O)c2c1", "note": "[Comparative compound 4, 7-((R)-5-hydroxymethyl-2-oxooxazolidin-3-yl)-3-(2-trifluoromethylphenyl)-2H-isoquinolin-1-one]", "values": [{"measurement": "solubility at 2 h", "setting": "[1]; [4]", "result": 193, "unit": "µM"}]}, {"smiles": "O=C1O[C@@H](COP(=O)(OCc2ccccc2)OCc2ccccc2)CN1c1ccc2cc(-c3ccccc3C(F)(F)F)[nH]c(=O)c2c1", "note": "[Comparative compound 1, phosphoric acid dibenzyl ester(R)-2-oxo-3-[1-oxo-3-(2-trifluoromethylphenyl)-1,2-dihydroisoquinolin-7-yl]-oxazolidin-5-ylmethyl ester, reference compound]", "values": [{"measurement": "solubility at 2 h", "setting": "[1]; [4]", "result": "< 7.8", "unit": "µM"}, {"measurement": "Residual rate (after 6 hrs., %)", "setting": "[2]", "result": 99.5, "unit": "%"}, {"measurement": "remained in human plasma after 6 hours (in words)", "setting": "[2]", "result": "almost all"}]}, {"smiles": "O=C1O[C@H](COP(=O)([O-])[O-])CN1c1ccc2cc(-c3ccccc3C(F)(F)F)[nH]c(=O)c2c1.[Na+].[Na+]", "note": "[Example 2, Mono-{(S)-2-oxo-3-[1-oxo-3-(2-trifluoromethyl-phenyl)-1,2-dihydro-isoquinolin-7-yl]-oxazolidin-5-ylmethyl}-disodium phosphate]", "values": [{"measurement": "solubility at 2 h", "setting": "[1]", "result": 3527, "unit": "µM"}, {"measurement": "Residual rate (after 6 hrs., %)", "setting": "[2]", "result": 29.4, "unit": "%"}, {"measurement": "remained in human plasma after 6 hours (in words)", "setting": "[2]", "result": "almost all"}, {"measurement": "TGI on day 14 (%)", "setting": "[3]; 60 mg/kg", "result": 85, "unit": "%"}]}, {"smiles": "O=C1O[C@H](COP(=O)(O)O)CN1c1ccc2cc(-c3ccccc3C(F)(F)F)[nH]c(=O)c2c1", "note": "[Example 1, Mono-{(S)-2-oxo-3-[1-oxo-3-(2-trifluoromethyl-phenyl)-1,2-dihydro-isoquinolin-7-yl]-oxazolidin-5-ylmethyl}-phosphoric acid]", "values": [{"measurement": "solubility at 2 h", "setting": "[1]; [4]", "result": 3530, "unit": "µM"}, {"measurement": "Residual rate (after 6 hrs., %)", "setting": "[2]", "result": 35.4, "unit": "%"}]}, {"smiles": "O=C1O[C@H](CO)CN1c1ccc2cc(-c3ccccc3C(F)(F)F)[nH]c(=O)c2c1", "note": "[Comparative compound 3, 7-((S)-5-hydroxymethyl-2-oxooxazolidin-3-yl)-3-(2-trifluoromethylphenyl)-2H-isoquinolin-1-one]", "values": [{"measurement": "solubility at 2 h", "setting": "[1]; [4]", "result": 179, "unit": "µM"}]}, {"smiles": "O=C1O[C@@H](COP(=O)(O)O)CN1c1ccc2cc(-c3ccccc3C(F)(F)F)[nH]c(=O)c2c1", "note": "[Example 6, Mono-{(R)-2-oxo-3-[1-oxo-3-(2-trifluoromethyl-phenyl)-1,2-dihydro-isoquinolin-7-yl]-oxazolidin-5-ylmethyl}-phosphoric acid]", "values": [{"measurement": "solubility at 2 h", "setting": "[1]; [4]", "result": "> 4000", "unit": "µM"}]}, {"smiles": "O=C1O[C@@H](COP(=O)(O)O)CN1c1ccc2cc(-c3ccccc3C(F)(F)F)[nH]c(=O)c2c1", "note": "[Example 7, Mono-{(R)-2-oxo-3-[1-oxo-3-(2-trifluoromethyl-phenyl)-1,2-dihydro-isoquinolin-7-yl]-oxazolidin-5-ylmethyl}-disodium phosphate]", "values": [{"measurement": "Residual rate (after 6 hrs., %)", "setting": "[2]", "result": 33.4, "unit": "%"}, {"measurement": "TGI on day 14 (%)", "setting": "[3]; 80 mg/kg", "result": 30, "unit": "%"}]}]}
